How the values were obtained:
Assay type in all cases: biochemical
[1] = target: T1, Bovine insulin (Bos taurus, UniProt P01317); assay: Insulin aggregation (turbidity at 360 nm) induced by DTT; conditions: Insulin 0.25 mg/mL, 25° C., DTT; compound 100×; standard deviation in parenthesis
T1 construct: purchased Sigma, St. Louis, Mo., USA
Method: (§1) Bovine insulin [Sigma, St. Louis, Mo., USA] was dissolved in phosphate saline (PBS) (50 mM sodium biphosphate, 100 mM sodium chloride), pH 7.0, bovine alpha-lactalbumin [Sigma] in 50 mM sodium phosphate, 100 mM sodium chloride and 2 mM EDTA, pH 6.2, chicken egg white lysozyme [Sigma] in 100 mM Tris, 1 mM EDTA, pH 8.2, human acidic fibroblast growth factor (FGF-1) in 6.2 mM sodium biphosphate, 120 mM sodium chloride, pH 7.2, porcine somatotropin (pST) [provided by Pfizer, Inc., Groton, Conn., USA] in 10 mM phosphate, pH 6. 1, human apolactoferrin (HLF) [Sigma] in 20 mM HEPES, 154 mM NaCl, pH 7.4, porcine heart citrate synthase (CS) in 40 mM HEPES, 50 mM KCl, 10 mM (NH4)2SO4 mM potassium acetate, pH 7.8, and yeast alcohol dehydrogenase (ADH) [Sigma] in pH 7.0 PBS. Selection of buffer solutions was based on an extensive series of preliminary studies to obtain appropriate insolubilization kinetics as described below.
(§2) Copper O-phenanthroline (1,10-phenanthroline) was prepared by mixing copper sulfate hexahydrate [Fisher] and o-phenanthroline [Sigma] in a 1:2 ratio. 1 M Dithiothreitol (DTT) was prepared at pH 7.0 PBS. Polyethylene glycol (M.W. 8000, Union Carbide, Danbury, Conn., USA) (PEG) was prepared at 20 mg/mL in 10 mM phosphate, pH 6.1.
(§3) The following compounds were obtained from Sigma and used without further purification: oxalic acid, sodium malonate, succinic acid, glutaric acid, adipic acid, pimelic acid, suberic acid, azelaic acid, guanidine hydrochloride, ammonium formate, beta-alanine, 4-aminobutyric acid, 5-aminovaleric acid, 6-aminocaproic acid, 7-aminoheptanoic acid, hydrazine, ethylenediamine, 1,3-diaminopropane, 1,4-diaminobutane, 1,5-diaminopentane, 1,6-diaminohexane, 1,7-diaminoheptane, Glu-Glu, Glu-Lys, Lys-Lys, diglycine, triglycine, tetraglycine, pentaglycine, and hexaglycine. […] Triglycine and tetraglycine were dissolved in pH 8.6 PBS, while pentaglycine and hexaglycine were dissolved in pH 10.6 PBS.
(§4) Each was either dissolved in pH 7.0 PBS, or pH 6.1 10 mM phosphate, and adjusted to the same pH.
(§5) Protein aggregation was monitored for 1 hour at 360 nm using an HP8453 UV-visible spectrophotometer system [Hewlett Packard, Germany]. […] Insulin (0.25 mg/mL (4.39E-5 M)) aggregation was monitored at 25° C. after addition of potential inhibitors and 20 μL of 1 M DTT (1.27E-4 M). Alpha-lactabumin (0.4 mg/mL (2.82E-5 M)) aggregation was monitored at 37° C. in the presence of 20 μL of 1 M DTT (1.27E-4 M). Lysozyme (0.4 mg/mL (2.86E-5 M)) aggregation was monitored at 25° C. in the presence of 20 μL of 1 M DTT (1.27E-4 M). FGF-1 (50 μg/mL (3.12E-6 M)) aggregation was monitored at 50° C. Porcine somatotropin (1.27 mg/mL (5.76E-5 M)) aggregation was monitored at 60° C. in the presence of PEG 8000 (20 mg/mL) which was included to enhance the protein association process through a simple exclusion volume effect. HLF (0.4 mg/mL (5.23E-6 M)) aggregation was monitored at 43° C. in the presence of 1.27E-4 M DTT. Citrate synthase (96 μg/mL (9.80E-7 M)) aggregation was monitored at45° C. ADH (1 mg/mL (7.14E-6 M)) was monitored at 37° C. following the addition of 7.76E-5 M Cu(OP)2. Aggregation was compared to protein in the absence of the particular dipolar compound. After stirring, experiments were initiated by the addition of proteins followed by stressing reagents to 1 cm pathlength cuvettes employing a seven-position thermostatted sample holder that was cycled at 30-second intervals. Alternatively, a microtiter plate reader was employed under the same conditions in a 96 well format.
(§6) All optical density (OD)360nm versus time results were exported into Excel [Microsoft] for data analysis.

[2] = target: T2, yeast alcohol dehydrogenase (ADH) (Saccharomyces cerevisiae, UniProt P00330); assay: ADH oxidation-induced aggregation (turbidity at 360 nm), Cu(OP)2; conditions: ADH 1 mg/mL, 37° C., Cu(OP)2
T2 construct: purchased Sigma
T2 sequence (P00330 2-348 limits assumed): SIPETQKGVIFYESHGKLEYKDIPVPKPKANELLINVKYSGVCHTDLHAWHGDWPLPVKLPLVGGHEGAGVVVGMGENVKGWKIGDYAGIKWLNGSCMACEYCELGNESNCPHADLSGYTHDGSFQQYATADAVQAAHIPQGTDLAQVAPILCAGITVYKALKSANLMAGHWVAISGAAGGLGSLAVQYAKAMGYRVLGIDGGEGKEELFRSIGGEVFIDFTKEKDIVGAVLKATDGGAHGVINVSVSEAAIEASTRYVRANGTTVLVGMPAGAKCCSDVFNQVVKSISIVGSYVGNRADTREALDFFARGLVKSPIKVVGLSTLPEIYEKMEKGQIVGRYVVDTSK
Method: as §1, §2, §3, §4, §5, §6

[3] = target: T3, porcine somatotropin (pST) (Sus scrofa, UniProt P01248); assay: Porcine somatotropin aggregation (turbidity at 360 nm) with PEG 8000; conditions: pST 1.27 mg/mL, 60° C., compound 100X, standard deviation in parenthesis
T3 construct: purchased Pfizer, Inc., Groton, Conn., USA (provided, not bought)
T3 sequence (P01248 27-216): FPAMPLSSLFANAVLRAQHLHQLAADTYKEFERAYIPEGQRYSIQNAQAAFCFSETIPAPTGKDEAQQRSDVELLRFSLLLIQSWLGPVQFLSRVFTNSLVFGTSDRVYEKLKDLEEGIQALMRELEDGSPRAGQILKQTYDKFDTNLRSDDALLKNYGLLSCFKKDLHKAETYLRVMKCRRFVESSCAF
Method: as §1, §2, §3, §4, §5, §6

[4] = target: T4, bovine alpha-lactalbumin (Bos taurus, UniProt P00711); assay: Alpha-lactalbumin aggregation (turbidity at 360 nm) induced by DTT; conditions: for inhibition index: α Lactalbumin 0.4 mg/mL, 37° C., DTT, compound 1,000×, standard deviation in parenthesis
T4 construct: purchased Sigma
T4 sequence (P00711 20-142): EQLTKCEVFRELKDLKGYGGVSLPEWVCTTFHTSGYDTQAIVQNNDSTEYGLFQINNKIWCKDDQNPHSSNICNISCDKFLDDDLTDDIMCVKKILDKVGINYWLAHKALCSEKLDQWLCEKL
Method: as §1, §2, §3, §4, §5, §6

[5] = target: T5, chicken egg white lysozyme (Gallus gallus, UniProt P00698); assay: Lysozyme aggregation (turbidity at 360 nm) induced by DTT; conditions: Lysozyme 0.4 mg/mL, 25° C., DTT; compound 1,000×; standard deviation in parenthesis
T5 construct: chicken egg white lysozyme [Sigma]; purchased Sigma; host or cells: egg white
Method: as §1, §2, §3, §4, §5, §6

[6] = target: T6, human apolactoferrin (HLF) (Homo sapiens, UniProt P02788); assay: HLF aggregation (turbidity at 360 nm) induced by DTT; conditions: HLF 0.4 mg/mL, 43° C., DTT; first HLF column, head 10,000×; standard deviation in parenthesis
T6 construct: purchased Sigma
Method: as §1, §2, §3, §4, §5, §6

[7] = target: T7, porcine heart citrate synthase (CS) (Sus scrofa, UniProt P00889); assay: Citrate synthase thermal aggregation (turbidity at 360 nm); conditions: CS 96 μg/mL, 45° C.; compound 1,000X; standard deviation in parenthesis
T7 construct: porcine heart citrate synthase (CS); from tissue; host or cells: porcine heart
T7 sequence (P00889 28-464): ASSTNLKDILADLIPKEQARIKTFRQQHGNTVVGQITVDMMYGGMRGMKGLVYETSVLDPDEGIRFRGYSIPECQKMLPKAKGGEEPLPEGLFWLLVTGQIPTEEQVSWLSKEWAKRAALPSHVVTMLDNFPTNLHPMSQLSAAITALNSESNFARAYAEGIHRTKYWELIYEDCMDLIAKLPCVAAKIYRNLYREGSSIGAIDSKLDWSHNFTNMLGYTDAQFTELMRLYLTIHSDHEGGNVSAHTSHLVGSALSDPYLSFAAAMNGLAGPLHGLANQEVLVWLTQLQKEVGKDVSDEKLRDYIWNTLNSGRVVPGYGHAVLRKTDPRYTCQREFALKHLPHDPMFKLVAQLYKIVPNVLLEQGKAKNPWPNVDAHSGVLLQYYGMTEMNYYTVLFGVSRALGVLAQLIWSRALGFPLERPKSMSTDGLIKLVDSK
Method: as §1, §3, §4, §5
(§7) All optical density (OD)360nm versus time results were exported into Excel [Microsoft] for data analysis. […] The maximum rate of change in OD versus time plots (r) was used to determine the rate of the reaction from the slope at this point.

[8] = target: human acidic fibroblast growth factor (FGF-1) (Homo sapiens, UniProt P05230); assay: FGF-1 thermal aggregation (turbidity at 360 nm); conditions: FGF-1 50 μg/mL, 50° C.; compound 1,000×; standard deviation in parenthesis
Method: as §1, §3, §4, §5, §7

[9] = compound 1,000X, standard deviation in parenthesis

T6 sequence (P02788 20-710): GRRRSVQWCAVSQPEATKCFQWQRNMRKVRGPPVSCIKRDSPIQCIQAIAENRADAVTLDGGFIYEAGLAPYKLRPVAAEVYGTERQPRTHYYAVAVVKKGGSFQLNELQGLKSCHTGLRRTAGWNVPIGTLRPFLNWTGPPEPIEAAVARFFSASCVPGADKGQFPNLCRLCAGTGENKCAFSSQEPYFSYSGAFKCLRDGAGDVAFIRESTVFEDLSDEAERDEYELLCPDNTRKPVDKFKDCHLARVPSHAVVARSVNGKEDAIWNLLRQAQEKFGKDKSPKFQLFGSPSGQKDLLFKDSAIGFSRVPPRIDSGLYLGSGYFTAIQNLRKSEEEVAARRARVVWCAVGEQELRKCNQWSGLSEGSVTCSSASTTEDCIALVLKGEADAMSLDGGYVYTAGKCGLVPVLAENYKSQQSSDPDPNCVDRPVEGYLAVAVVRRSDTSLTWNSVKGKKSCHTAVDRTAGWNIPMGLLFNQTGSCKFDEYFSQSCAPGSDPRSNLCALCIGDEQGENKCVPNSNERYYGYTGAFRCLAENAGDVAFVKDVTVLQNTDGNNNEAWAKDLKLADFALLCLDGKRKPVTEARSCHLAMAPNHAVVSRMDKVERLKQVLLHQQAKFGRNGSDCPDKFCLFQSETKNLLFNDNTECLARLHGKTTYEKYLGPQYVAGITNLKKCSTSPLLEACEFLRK
Chain of human acidic fibroblast growth factor (FGF-1) (P05230 whole entry): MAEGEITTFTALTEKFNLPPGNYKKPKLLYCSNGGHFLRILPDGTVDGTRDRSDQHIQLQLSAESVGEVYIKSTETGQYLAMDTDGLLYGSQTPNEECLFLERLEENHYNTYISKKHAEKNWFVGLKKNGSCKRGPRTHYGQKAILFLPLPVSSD
T1 sequence (P01317 25-54 limits assumed): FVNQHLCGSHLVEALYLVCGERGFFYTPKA
T1 sequence (P01317 85-105 limits assumed): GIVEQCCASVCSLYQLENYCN
T5 sequence (P00698 19-147): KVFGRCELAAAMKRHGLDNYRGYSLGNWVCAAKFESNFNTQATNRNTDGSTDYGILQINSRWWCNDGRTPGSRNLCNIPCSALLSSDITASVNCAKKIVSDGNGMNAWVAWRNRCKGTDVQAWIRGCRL

Row | Substance | inhibition index [1] | inhibition index [2, 9] | inhibition index [3] | inhibition index [4] | inhibition index [5] | inhibition index [6] | inhibition index [7] | inhibition index [8] | inhibition index ([2]; compound 10,000X molar excess, Infinite = complete inhibition of aggregation over one hour) | inhibition of α-lactalbumin aggregation, in words [4]
1 | ^+NH3-(Lys)^+-(Gly)n-(Glu)^−-COO^− [KGGE] | 1.0 (0.3) | 0.8 (0.1) | 0.6 (0.1) | 0.5 (0.2) | 2.6 (0.4) | 0.7 (0.1) | 1.4 (0.4) | 1.2 (0.2) |  | 
2 | ^+NH3-(Lys)^+-(Gly)n-(Lys)^+-CONH2 [^+NH3—(K)^+—(G)2—(K)^+—CONH2] | 1.8 (0.1) | 0.8 (0.1) | 1.2 (0.2) | 3.3 (0.9) | 0.4 (0.1) | 1.3 (0.1) | 0.7 (0.2) | 1.8 (0.3) |  | 
3 | hexaglycine | 1.5 (0.7) | 1.7 (0.5) | 0.7 (0.1) | 4.2 (1.1) | 0.0 (0.0) | 1.7 (1.5) | 0.5 (0.1) |  | 20.3 | Potent inhibitors
4 | CH3—NH2-(Glu)^−-(Gly)n-(Glu)^−-COO^− [CH3—NH2—(E)^−—(G)1—(E)^−—COO^−] | 0.5 (0.2) | 1.6 (0.1) | 1.0 (0.1) | 0.2 (0.1) | 0.9 (0.1) | 1.6 (0.1) | 0.8 (0.1) | 1.9 (0.1) |  | 
5 | ^+NH3-(Lys)^+-(Gly)n-(Lys)^+-CONH2 [^+NH3—(K)^+—(G)4—(K)^+—CONH2] | 1.6 (0.3) | 1.5 (0.3) | 0.9 (0.0) | 1.4 (0.3) | 1.4 (0.5) | 1.9 (0.2) | 0.8 (0.2) | 2.0 (1.0) |  | 
6 | ^+NH3-(Lys)^+-(Gly)n-(Glu)^−-COO^− [KGE] | 0.6 (0.3) | 1.3 (0.1) | 0.7 (0.0) | 0.3 (0.2) | 2.8 (0.8) | 0.9 (0.1) | 1.2 (0.2) | 1.7 (0.4) |  | 
7 | ^+NH3-(Lys)^+-(Gly)n-(Glu)^−-COO^− [KGGGGE] | 1.0 (0.1) | 1.4 (0.1) | 0.6 (0.1) | 0.5 (0.1) | 1.9 (0.5) | 0.8 (0.1) | 1.8 (0.2) | 1.9 (0.4) |  | 
8 | ^+NH3-(Lys)^+-(Gly)n-(Glu)^−-COO^− [KGGGE] | 0.8 (0.1) | 1.2 (0.1) | 0.6 (0.1) | 0.6 (0.1) | 3.4 (0.1) | 0.8 (0.1) | 1.5 (0.1) | 1.9 (0.2) |  | 
9 | KGGGGGE [^+NH3-(Lys)^+-(Gly)n-(Glu)^−-COO^−, n = 5] | 1.3 (0.3) | 1.4 (0.2) | 0.5 (0.1) | 1.8 (0.2) | 1.5 (0.4) | 0.8 (0.1) | 2.0 (0.2) | 1.4 (0.3) |  | 
10 | ^+NH3-(Lys)^+-(Gly)n-(Lys)^+-CONH2 [^+NH3—(K)^+—(G)5—(K)^+—CONH2] | 1.7 (1.0) | 1.5 (0.2) |  | 2.6 (1.1) | 0.8 (0.4) | 1.5 (0.3) | 0.8 (0.1) | 3.3 (0.8) |  | Potent inhibitors
11 | CH3—NH2-(Glu)^−-(Gly)n-(Glu)^−-COO^− [CH3—NH2—(E)^−—(G)3—(E)^−—COO^−] | 1.3 (0.4) | 1.3 (0.1) | 1.2 (0.2) | 0.5 (0.3) | 0.9 (0.2) | 1.5 (0.3) | 1.0 (0.2) | 2.0 (0.3) |  | 

— patent US20030125234A1, “Alteration of protein stability” (priority 2001, published 2003)
